US11786540B2, “Gliflozins and a method for their delivery during resuscitation from cardiac arrest to improve survival outcomes” (Rosalind Franklin University of Medicine and Science, priority 2020, dated 2023)

Columns and labels:
[1] = tested on: open-chest swine model of VF; assay: open-chest swine model of electrically-induced VF and simulated CPR using extracorporeal circulation; format: in vivo
Method: The studies were conducted in an open-chest swine model of electrically-induced VF and simulated CPR with controlled coronary blood flow (CBF) using extracorporeal circulation (ECC).^13,14 With a high degree of precision, the ECC model allowed subjecting the myocardium to low-flow reperfusion (as CPR does) after a period of ischemia during untreated VF (as it typically occurs in patients). The model reproduces adverse myocardial effects observed during CPR including increased myocardial wall thickness that is consistently ameliorated by NHE-1 inhibition. In addition, the model also reproduces post-resuscitation myocardial dysfunction which is also ameliorated by NHE-1 inhibition. In addition, the open-chest model allows for direct assessment of the myocardium via a micro-tip pressure transducer in the left ventricle to measure left ventricular pressure with high fidelity; a flow probe around the left anterior descending coronary artery to measure coronary blood flow as a surrogate of total myocardial blood flow; ultrasonic piezoelectric crystals to continuously measure the diameter (short-axis) and wall thickness of the left ventricle at the level of the mitral valve; and echocardiography to measure left ventricle volumes and wall thickness through a 4-chamber and 2-chamber views of the heart.
Therefore, we chose an EMPA dose expected to achieve a blood concentration of 1 μM after initial blood volume distribution in our swine model of VF and resuscitation by ECC. For this purpose, a stock solution was first prepared by dissolving 90.2 mg of EMPA (Sigma, St. Louis, Mo., MW 450.92) in 10 ml of 100% DMSO to obtain a 20 mM solution. This stock solution was diluted in saline to 200 μM. Given an estimated blood volume of 2.5 L for a 40-kg pig, 2.5 μmoles (i.e., 12.5 ml of the 200 μM solution) were given in bolus dose to attain the target blood concentration of 1 μM EMPA after initial blood volume distribution. […] Control pigs received 12.5 ml of 0.9% NaCl.
The bolus of EMPA or control solution was given at minute 9 of untreated VF through the venous port of the extracorporeal circuit. VF was maintained untreated for 10 minutes. ECC was then initiated and maintained for an additional 16 minutes. The ECC flow was titrated with the aid of a closed-loop system to generate and maintain a CBF of 25% of the baseline CBF, measured in the left anterior descending coronary artery.^20
Six male domestic pigs (38.2 to 43.3 kg) were fasted overnight, sedated with ketamine hydrochloride (30 mg/kg intramuscular), and anesthetized with propofol (2 mg/kg through an ear vein). The trachea was intubated with a size-7.5 orotracheal tube and positive pressure ventilation initiated with 50% oxygen using a volume-controlled ventilator (840 Ventilator System, Nellcor Puritan Bennett, Boulder, Colo.) set to deliver 10 mL/kg at a peak flow of 60 L/min with an FiO2 of 0.5. The respiratory rate was adjusted to attain an end-tidal PCO2 (PETCO2) between 38 and 42 mmHg. Anesthesia was maintained using isoflurane (1.75%-2.75%). Rectal temperature was maintained between 37.5 and 38.5° C. with a servo-controlled water-circulated blanket (Blanketrol II, Cincinnati Sub-Zero, Cincinnati, Ohio). The ECG signal was obtained during spontaneous circulation through leads placed on the right forelimb, left forelimb, and left hindlimb. During VF, the ECG signal was obtained through pads from a biphasic waveform defibrillator (E series; ZOLL Medical Corporation, Chelmsford, Mass.) placed on the shaved sides of the chest along the midaxillary line.
A 7 F fluid-filled catheter was advanced from the right femoral artery into the descending thoracic aorta to measure aortic pressure. A 7 F thermodilution balloon-tipped catheter was advanced through the right external jugular vein into the pulmonary artery to measure cardiac output, right atrial pressure, pulmonary artery pressure, and pulmonary artery occlusive pressure (Swan-Ganz, Edwards Lifesciences, Irvine, Calif.). […]

[2] = 25 mg oral dose in humans; cited from earlier work
[3] = tested on: CaMKII; conditions: 24 hours exposure; cited from earlier work
[4] = tested on: patients with type 2 diabetes; conditions: cited from earlier work
[5] = tested on: isolated mice hearts; conditions: cited from earlier work
[6] = tested on: obese rats with diastolic dysfunction; conditions: cited from earlier work
[7] = tested on: isolated cardiomyocytes; conditions: cited from earlier work
[8] = dose 0.5 mg/kg; cited from earlier work
[9] = tested on: closed-chest swine model of VF; format: in vivo
Method: We used a swine model of VF and conventional closed-chest resuscitation with survival up to 240 minutes. We conducted 16 experiments in which 8 were randomized to receive EMPA and 8 to vehicle control given intravenously immediately before starting CPR.
Domestic pigs (35.2 to 39.6 kg) were sedated, anesthetized, intubated, and started on mechanical ventilation as for the experiments in the open-chest model. For blood sampling and measuring aortic pressures, a 6F dual lumen pressure monitoring catheter (Langston, Vascular Solutions) was advanced through the right femoral artery past the bifurcation and into the descending thoracic aorta. For measuring left ventricular pressures, a 7F fluid-filled pigtail catheter (Langston, Vascular Solutions) was advanced through the surgically exposed right carotid artery and into the left ventricle. For blood sampling and for measuring core temperature, cardiac output by thermodilution technique, and pressures in the right atrium and pulmonary artery, a balloon-tipped pulmonary artery catheter (Swan-Ganz, Edwards Lifesciences, Irvine, Calif.) was advanced through the right external jugular vein and into the pulmonary artery. For induction of VF, a 5F pacing electrode was advanced through the right internal jugular vein into the right ventricle (FIG. 4).
VF was induced by delivering an alternating current (1-10 mA) to the right ventricular endocardium and left untreated without ventilation for 10 minutes. At the end of untreated VF, chest compressions were started using a mechanical compressor (Michigan Thumper Model 1007, Grand Rapids, Mich.) set to compress the chest at a rate of 100 per minute with its depth titrated attempting to generate an aortic diastolic pressure of at least 25 mmHg but without exceeding a maximum compression depth of 5 cm. Ventilation with 100% oxygen was delivered using a 350-ml self-inflating pediatric bag (Lifesaver Resuscitation Bags; Teleflex Medical, N.C.). Compressions and ventilations were delivered sequentially as recommended when the airway is un-protected. Accordingly, 30 chest compressions were delivered in 18 seconds followed by 2 breaths during a 6 second compression pause. Electrical shocks were delivered through the chest pads using a biphasic waveform defibrillator (R series Zoll Corp.) with the energy set at 200-J. Shocks were delivered guided by the likelihood of successful resuscitation using an algorithm developed by us based on real-time monitoring of the VF waveform in the frequency domain known as amplitude spectral area (AMSA).^24 Epinephrine (1 mg-bolus dose; 1 ml) was delivered through the pulmonary artery catheter into the right atrium and the line flushed with 10 ml of 0.9% NaCl. The timing of epinephrine delivery was based on an AMSA advisory criterion avoiding delivery if AMSA predicted a high likelihood of shock success within the ensuing 120 seconds, with a minimum interval between doses of 240 seconds. The purpose of AMSA advisory criteria was to minimize administration of epinephrine—given its known adverse post-resuscitation effects—if not required for successful resuscitation.^25,26 Animals that achieved ROSC received 0.9% NaCl (30 ml/kg) at the maximum pump rate (999 ml/h) and were monitored for up to 240 minutes, euthanizing those that survived by delivering a right atrial bolus of KCl (150 mg/kg).
For these experiments we used a higher EMPA dose corresponding to 0.5 mg/kg.
For this purpose, a stock solution was prepared by dissolving 90.2 mg of EMPA (Sigma, St. Louis, Mo., MW 450.92) in 8 ml of 100% DMSO to obtain a […] solution. This stock solution was diluted in saline to 5 mM. Given an estimated blood volume of 2.5 L for a 40-kg pig, 44.64 μmoles (i.e., 8.9 ml of the 5 mM solution) of EMPA was given in bolus dose into the right atrium immediately before starting CPR to attain the target blood concentration of 17.8 μM (0.8026 mg/di) after initial blood volume distribution. […]

[10] = tested on: coronary occlusion and reperfusion; conditions: rat, in vivo; cited from earlier work
[11] = tested on: ischemia-reperfusion; conditions: rat and swine models of ischemia-reperfusion; cited from earlier work
[12] = tested on: coronary occlusion and reperfusion; conditions: oral, 24 hours and 2 hours before coronary occlusion; cited from earlier work
[13] = tested on: swine model of cardiac arrest; conditions: given immediately before starting CPR; cited from earlier work
[14] = vs control, statistically significant

OC[C@H]1O[C@@H](c2ccc(Cl)c(Cc3ccc(O[C@H]4CCOC4)cc3)c2)[C@H](O)[C@@H](O)[C@@H]1O [EMPA, Empagliflozin]
myocardial changes during the resuscitation effort ([1]; between EMPA and control groups): no myocardial differences
increases in Tau, the relaxation time constant, post-resuscitation ([1]; developed in control animals): not observed
progressive left ventricular wall thickening post-resuscitation ([1]; developed in control animals): not observed
cumulative energy required to terminate VF ([1]; same in both groups): 60 J
NE doses received post-resuscitation ([1]; vs control): lower
PETCO2 post-resuscitation ([1]; vs control): markedly higher
heart rate post-resuscitation ([1]; vs control, n=3 per group, not statistically significant): lower
MAP post-resuscitation ([1]; vs control, n=3 per group, statistically significant): statistically significant higher
coronary vascular resistance post-resuscitation ([1]; vs control, did not achieve statistical significance): slightly lower
LAD blood flow post-resuscitation [1, 14]: substantially higher
cardiac index post-resuscitation [1, 14]: markedly higher
left ventricular stroke work index post-resuscitation [1, 14]: higher
stroke volume index post-resuscitation [1, 14]: higher
blood concentration [2]: 0.69 µM
CaMKII activity [3]: reduction
reduction in the relative risk of cardiovascular death [4]: 38%
risk reduction of hospitalization for heart failure [4]: 35%
onset of myocardial contracture during ischemia ([5]; EMPA 1 μM, 18 minutes prior to ischemia and 25 minutes of ischemia): delayed
infarct size ([5]; global ischemia and reperfusion): reduced
isovolumic relaxation time ([6]; after 30 minutes): improved
blood concentration ([6]; single EMPA injection, obese rats): 8.68 µM
cytosolic sodium and cytosolic calcium [7]: reductions
adverse effect [8]: had not shown adverse effect
end-tidal PCO2 during CPR ([9]; 0.5 mg/kg, n=8, comparator 29±7): 36±7 mmHg
left ventricular stroke work index post-resuscitation ([9]; vs comparator): higher
mean arterial pressure post-resuscitation ([9]; vs comparator): lower
stroke volume index post-resuscitation ([9]; vs comparator): higher
systemic vascular resistance post-resuscitation ([9]; vs comparator): lower
cardiac index post-resuscitation ([9]; vs comparator, average of 120, 180, 240 min): higher
pulmonary vascular resistance post-resuscitation ([9]; vs comparator, not shown): lower

Cc1ccc([C@@H]2O[C@H](CO)[C@@H](O)[C@H](O)[C@H]2O)cc1Cc1ccc(-c2ccc(F)cc2)s1 [canagliflozin]
infarct size [10]: reduced
systolic and diastolic dysfunction [10]: ameliorated
reductions in infarct size [11]: up to 60%
stroke volume and cardiac output after reperfusion [12]: better

CC(C)c1ccc(C(=O)NC(=N)N)cc1S(C)(=O)=O [cariporide]
myocardial wall thickening and reduction in left ventricular cavity size [13]: significant amelioration
